Assay results: PubChem BioAssay (NCI)
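All cell lines were grown in 96-well plates and treated with compound for 48 hours. TGI denotes the concentration required for complete inhibition of growth.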

Legend:
Experiment in all cases: NCI tumour cell line growth inhibition, 48 h
[1] = tested on: 786-0 renal
[2] = tested on: A549 NSCLC
[3] = tested on: ACHN renal
[4] = tested on: BT-549 breast
[5] = tested on: CAKI-1 renal
[6] = tested on: CCRF-CEM leukemia
[7] = tested on: COLO 205 colon
[8] = tested on: DU-145 prostate
[9] = tested on: HCC-2998 colon
[10] = tested on: HCT-116 colon
[11] = tested on: HCT-15 colon
[12] = tested on: HL-60(TB) leukemia
[13] = tested on: HOP-62 NSCLC
[14] = tested on: HOP-92 NSCLC
[15] = tested on: HS 578T breast
[16] = tested on: HT29 colon
[17] = tested on: IGROV1 ovarian
[18] = tested on: K-562 leukemia
[19] = tested on: KM12 colon
[20] = tested on: LOX IMVI melanoma
[21] = tested on: M14 melanoma
[22] = tested on: MALME-3M melanoma
[23] = tested on: MCF7 breast
[24] = tested on: MDA-MB-231 breast
[25] = tested on: MDA-MB-435
[26] = tested on: MDA-N
[27] = tested on: MOLT-4 leukemia
[28] = tested on: NCI-H23 lung
[29] = tested on: NCI/ADR-RES ovarian
[30] = tested on: OVCAR-3 ovarian
[31] = tested on: OVCAR-4 ovarian
[32] = tested on: OVCAR-8 ovarian
[33] = tested on: PC-3 prostate
[34] = tested on: RPMI-8226 leukemia
[35] = tested on: SF-268 CNS
[36] = tested on: SF-295 CNS
[37] = tested on: SF-539 CNS
[38] = tested on: SK-MEL-28 melanoma
[39] = tested on: SK-MEL-5 melanoma
[40] = tested on: SK-OV-3 ovarian
[41] = tested on: SN12C renal
[42] = tested on: SNB-19 CNS
[43] = tested on: SNB-75 CNS
[44] = tested on: SR leukemia
[45] = tested on: SW-620 colon
[46] = tested on: T-47D breast
[47] = tested on: TK-10 renal
[48] = tested on: U251 CNS
[49] = tested on: UACC-257 melanoma
[50] = tested on: UACC-62 melanoma
[51] = tested on: A498 renal
[52] = tested on: EKVX NSCLC
[53] = tested on: NCI-H226 lung
[54] = tested on: NCI-H460 lung
[55] = tested on: OVCAR-5 ovarian
[56] = tested on: SK-MEL-2 melanoma
[57] = tested on: UO-31 renal
[58] = tested on: NCI-H522 lung
[59] = tested on: RXF 393 renal

## O=Cc1cc2c(cc1-c1c(C=O)ccc3c1OCO3)OCO2
[1]
  TGI: > 10 µM
[2]
  TGI: > 10 µM
[3]
  TGI: > 10 µM
[4]
  TGI: > 10 µM
[5]
  TGI: > 10 µM
[6]
  TGI: > 10 µM
[7]
  TGI: > 10 µM
[8]
  TGI: > 10 µM
[9]
  TGI: > 10 µM
[10]
  TGI: > 10 µM
[11]
  TGI: > 10 µM
[12]
  TGI: > 10 µM
[13]
  TGI: > 10 µM
[14]
  TGI: > 10 µM
[15]
  TGI: > 10 µM
[16]
  TGI: > 10 µM
[17]
  TGI: > 10 µM
[18]
  TGI: > 10 µM
[19]
  TGI: > 10 µM
[20]
  TGI: > 10 µM
[21]
  TGI: > 10 µM
[22]
  TGI: > 10 µM
[23]
  TGI: > 10 µM
[24]
  TGI: > 10 µM
[25]
  TGI: > 10 µM
[26]
  TGI: > 10 µM
[27]
  TGI: > 10 µM
[28]
  TGI: > 10 µM
[29]
  TGI: > 10 µM
[30]
  TGI: > 10 µM
[31]
  TGI: > 10 µM
[32]
  TGI: > 10 µM
[33]
  TGI: > 10 µM
[34]
  TGI: > 10 µM
[35]
  TGI: > 10 µM
[36]
  TGI: > 10 µM
[37]
  TGI: > 10 µM
[38]
  TGI: > 10 µM
[39]
  TGI: > 10 µM
[40]
  TGI: > 10 µM
[41]
  TGI: > 10 µM
[42]
  TGI: > 10 µM
[43]
  TGI: > 10 µM
[44]
  TGI: > 10 µM
[45]
  TGI: > 10 µM
[46]
  TGI: > 10 µM
[47]
  TGI: > 10 µM
[48]
  TGI: > 10 µM
[49]
  TGI: > 10 µM
[50]
  TGI: > 10 µM

## Cc1ccc(/C=N/n2c(=O)[nH]c3ccccc3c2=O)cc1
[1]
  TGI: > 100 µM
[51]
  TGI: > 100 µM
[2]
  TGI: > 100 µM
[3]
  TGI: > 100 µM
[4]
  TGI: > 100 µM
[5]
  TGI: > 100 µM
[6]
  TGI: > 100 µM
[7]
  TGI: > 100 µM
[8]
  TGI: > 100 µM
[52]
  TGI: > 100 µM
[10]
  TGI: > 100 µM
[11]
  TGI: > 100 µM
[12]
  TGI: > 100 µM
[13]
  TGI: > 100 µM
[14]
  TGI: > 100 µM
[15]
  TGI: > 100 µM
[16]
  TGI: > 100 µM
[17]
  TGI: > 100 µM
[18]
  TGI: > 100 µM
[19]
  TGI: > 100 µM
[20]
  TGI: > 100 µM
[21]
  TGI: > 100 µM
[23]
  TGI: > 100 µM
[24]
  TGI: > 100 µM
[25]
  TGI: > 100 µM
[26]
  TGI: > 100 µM
[27]
  TGI: > 100 µM
[53]
  TGI: > 100 µM
[28]
  TGI: > 100 µM
[54]
  TGI: > 100 µM
[30]
  TGI: > 100 µM
[55]
  TGI: > 100 µM
[33]
  TGI: > 100 µM
[34]
  TGI: > 100 µM
[35]
  TGI: > 100 µM
[36]
  TGI: > 100 µM
[37]
  TGI: > 100 µM
[56]
  TGI: > 100 µM
[38]
  TGI: > 100 µM
[39]
  TGI: > 100 µM
[40]
  TGI: > 100 µM
[41]
  TGI: > 100 µM
[42]
  TGI: > 100 µM
[44]
  TGI: > 100 µM
[45]
  TGI: > 100 µM
[46]
  TGI: > 100 µM
[47]
  TGI: > 100 µM
[48]
  TGI: > 100 µM
[49]
  TGI: > 100 µM
[50]
  TGI: > 100 µM
[57]
  TGI: > 100 µM

## C=CCNC1=C2C[C@@H](C)C[C@@H](OC)[C@H](OC(=O)CCCCN)[C@H](C)/C=C(\C)[C@@H](OC(N)=O)[C@H](OC)/C=C\C=C(/C)C(=O)NC(=CC1=O)C2=O
[1]
  TGI: 26.5 µM
[51]
  TGI: 25.9 µM
[2]
  TGI: 25.2 µM
[3]
  TGI: 34 µM
[4]
  TGI: 33.4 µM
[5]
  TGI: 33.2 µM
[6]
  TGI: 56.4 µM
[7]
  TGI: 16.6 µM
[8]
  TGI: 18.5 µM
[52]
  TGI: 26.9 µM
[9]
  TGI: 13.6 µM
[10]
  TGI: 28 µM
[11]
  TGI: 34.1 µM
[12]
  TGI: 30.3 µM
[13]
  TGI: 18.5 µM
[14]
  TGI: 35.7 µM
[15]
  TGI: 58.4 µM
[16]
  TGI: 14.8 µM
[17]
  TGI: 28.6 µM
[18]
  TGI: > 100 µM
[19]
  TGI: 18 µM
[20]
  TGI: 27.5 µM
[21]
  TGI: 27 µM
[22]
  TGI: 19.6 µM
[23]
  TGI: 12.4 µM
[24]
  TGI: 27.7 µM
[25]
  TGI: 25.6 µM
[26]
  TGI: 22 µM
[27]
  TGI: 52.9 µM
[28]
  TGI: 30 µM
[54]
  TGI: 26 µM
[58]
  TGI: 28.8 µM
[29]
  TGI: > 100 µM
[30]
  TGI: 7.66 µM
[31]
  TGI: 30.8 µM
[55]
  TGI: 34 µM
[32]
  TGI: 37.3 µM
[34]
  TGI: 35.1 µM
[59]
  TGI: 29.2 µM
[35]
  TGI: 32.8 µM
[36]
  TGI: 29.9 µM
[56]
  TGI: 9.98 µM
[38]
  TGI: 36.9 µM
[39]
  TGI: 25.5 µM
[40]
  TGI: 19.9 µM
[41]
  TGI: 27.1 µM
[42]
  TGI: 23.8 µM
[43]
  TGI: 15.2 µM
[44]
  TGI: > 100 µM
[45]
  TGI: 55.1 µM
[46]
  TGI: 29.9 µM
[47]
  TGI: 29 µM
[48]
  TGI: 22.8 µM
[49]
  TGI: 18.9 µM
[50]
  TGI: 27.7 µM
[57]
  TGI: 34.2 µM

## CNn1c(-c2ccccc2)n[nH]c1=O
[1]
  TGI: > 100 µM
[51]
  TGI: > 100 µM
[2]
  TGI: > 100 µM
[3]
  TGI: > 100 µM
[4]
  TGI: > 100 µM
[5]
  TGI: > 100 µM
[6]
  TGI: > 100 µM
[7]
  TGI: > 100 µM
[8]
  TGI: > 100 µM
[52]
  TGI: > 100 µM
[9]
  TGI: > 100 µM
[10]
  TGI: > 100 µM
[11]
  TGI: > 100 µM
[12]
  TGI: > 100 µM
[13]
  TGI: > 100 µM
[14]
  TGI: > 100 µM
[15]
  TGI: > 100 µM
[16]
  TGI: > 100 µM
[17]
  TGI: > 100 µM
[18]
  TGI: > 100 µM
[19]
  TGI: > 100 µM
[20]
  TGI: > 100 µM
[21]
  TGI: > 100 µM
[22]
  TGI: > 100 µM
[23]
  TGI: > 100 µM
[24]
  TGI: > 100 µM
[25]
  TGI: > 100 µM
[26]
  TGI: > 100 µM
[27]
  TGI: > 100 µM
[53]
  TGI: > 100 µM
[28]
  TGI: > 100 µM
[54]
  TGI: > 100 µM
[58]
  TGI: > 100 µM
[29]
  TGI: > 100 µM
[30]
  TGI: > 100 µM
[31]
  TGI: > 100 µM
[55]
  TGI: > 100 µM
[32]
  TGI: > 100 µM
[33]
  TGI: > 100 µM
[34]
  TGI: > 100 µM
[35]
  TGI: > 100 µM
[36]
  TGI: > 100 µM
[37]
  TGI: > 100 µM
[56]
  TGI: > 100 µM
[38]
  TGI: > 100 µM
[39]
  TGI: > 100 µM
[40]
  TGI: > 100 µM
[41]
  TGI: > 100 µM
[42]
  TGI: > 100 µM
[43]
  TGI: > 100 µM
[44]
  TGI: > 100 µM
[45]
  TGI: > 100 µM
[46]
  TGI: > 100 µM
[47]
  TGI: > 100 µM
[48]
  TGI: > 100 µM
[49]
  TGI: > 100 µM
[50]
  TGI: > 100 µM
[57]
  TGI: > 100 µM
